The test system of data set [1] is CF-HBE cells. The data set can be described thus: Intracellular Ca2+ measurement (Calcium6), IL-13 pre-treated CF-HBE at ALI. In kind it is cell-based, human. To be noted: for direct effect on baseline [Ca2+]i: apical addition; for UTP-stimulated elevation of [Ca2+]i: pre-treatment. The procedure:
CF-HBE cultured at air-liquid interface for 14–21 days were pre-treated with IL-13 (10 ng/mL; 48 h). CF-HBE were then loaded with the Ca^2+-sensitive fluorescent reporter dye, Calcium6 for 120 min at 37°C in Hanks balanced salt solution (HBSS) buffered with 20 mM HEPES (pH 7.4). […] The direct effects of apically administered TMEM16A blockers on [Ca^2+]i as well as effects on the subsequent responses to UTP were measured using a PHERAstar plate reader (BMG Lab Tech, United Kingdom). Equivalent measurements were performed in FRT-TMEM16Aabc cells that had been cultured in 96 well, clear bottom plastic plates and loaded with Calcium6 using the same protocol.

Data set [2] deals with HBE cells. The data set can be described thus: Goblet cell formation (MUC5AC+ and acetylated α-tubulin+ stained area) in HBE. It is filed as cell-based, human. To be noted: for acetylated α-tubulin (ciliated) stained area / MUC5AC+ stained area (goblet cells): 96 h; for MUC5AC+ stained area (goblet cells): IL-13 naïve and IL-13 treated cultures. The method, then: HBE cultured at air-liquid interface for 14–21 days were treated with TMEM16A blockers ± IL-13 (10 ng/mL; basolateral) for 96 h to establish any effects on goblet cell numbers. At 48h, LDH levels in the media were measured according to the manufacturer’s instructions (Roche Cytotoxicity Detection Kit #11644793001), and blockers, IL-13 and media were refreshed. At 96 h, wells were fixed in 4% formaldehyde and were stained with antibodies to MUC5AC (45M1; Thermo Fisher, United Kingdom) and acetylated α-tubulin (6-11B-1; Sigma, United Kingdom) as previously described ([Danahay et al., 2015]; [Danahay et al., 2020b]) with secondary antibodies to enable fluorescence detection of both proteins (Alexa Fluor; Thermo Fisher, United Kingdom). The MUC5AC^+ stained area was visualised using a Zeiss Axiovert epifluorescence microscope with a motorised stage that was used to image the same 9 regions of interest on each insert. ImageJ was used to quantify the MUC5AC^+ and stained area per insert which was normalised to the vehicle control group. The process was repeated for the acetylated α-tubulin^+ stained area.

For data set [3], the system named is CF-HBE cells. Put plainly: Short-circuit current (ISC), IL-13 pre-treated CF-HBE. It is filed as cell-based, human. The method, then: (§1) HBE cultured at air-liquid interface (ALI) for 14–21 days were mounted in Ussing chambers in symmetrical Ringers solution containing (in mM): 120 NaCl, 25 NaHCO3, 3.3 KH2PO4, 0.8 K2HPO4, 1.2 CaCl2, 1.2 MgCl2, and 10 glucose, and voltage clamped as described above. In some studies, HBE were pre-treated with IL-13 (10 ng/mL; Peprotech, United Kingdom) for 48 h to increase TMEM16A expression levels ([Caputo et al., 2008]). Amiloride (10 μM; apical) was used to block the spontaneous, ENaC-mediated current, whilst UTP (10 μM; apical) and forskolin (10 μM; apical and basolateral) were added to the bath solutions to activate Ca^2+ and cAMP-dependent anion secretory responses, respectively. Inh172 (30 μM; apical and basolateral) was also used to inhibit CFTR function. The TMEM16A blockers were added to the apical side of the Ussing chambers to evaluate effects on each of these currents.

Data set [4] relates to HBE cells (non-CF). The data set can be described thus: Short-circuit current (ISC) and transepithelial resistance, non-CF HBE. In kind it is cell-based, human. To be noted: for Inh172-sensitive ISC / amiloride-sensitive current / magnitude of response to amiloride / forskolin-stimulated current: after compound treatment; for change in transepithelial resistance: vehicle +108 ± 14. The procedure: as §1

The target in data set [5] is T1, hTMEM16Aabc (Homo sapiens, UniProt Q5XXA6, DEL476-501).
T1 construct: expressed in transfected cells
T1 sequence (Q5XXA6 with tags, fused parts or gaps isoform Q5XXA6-5 DEL539-564): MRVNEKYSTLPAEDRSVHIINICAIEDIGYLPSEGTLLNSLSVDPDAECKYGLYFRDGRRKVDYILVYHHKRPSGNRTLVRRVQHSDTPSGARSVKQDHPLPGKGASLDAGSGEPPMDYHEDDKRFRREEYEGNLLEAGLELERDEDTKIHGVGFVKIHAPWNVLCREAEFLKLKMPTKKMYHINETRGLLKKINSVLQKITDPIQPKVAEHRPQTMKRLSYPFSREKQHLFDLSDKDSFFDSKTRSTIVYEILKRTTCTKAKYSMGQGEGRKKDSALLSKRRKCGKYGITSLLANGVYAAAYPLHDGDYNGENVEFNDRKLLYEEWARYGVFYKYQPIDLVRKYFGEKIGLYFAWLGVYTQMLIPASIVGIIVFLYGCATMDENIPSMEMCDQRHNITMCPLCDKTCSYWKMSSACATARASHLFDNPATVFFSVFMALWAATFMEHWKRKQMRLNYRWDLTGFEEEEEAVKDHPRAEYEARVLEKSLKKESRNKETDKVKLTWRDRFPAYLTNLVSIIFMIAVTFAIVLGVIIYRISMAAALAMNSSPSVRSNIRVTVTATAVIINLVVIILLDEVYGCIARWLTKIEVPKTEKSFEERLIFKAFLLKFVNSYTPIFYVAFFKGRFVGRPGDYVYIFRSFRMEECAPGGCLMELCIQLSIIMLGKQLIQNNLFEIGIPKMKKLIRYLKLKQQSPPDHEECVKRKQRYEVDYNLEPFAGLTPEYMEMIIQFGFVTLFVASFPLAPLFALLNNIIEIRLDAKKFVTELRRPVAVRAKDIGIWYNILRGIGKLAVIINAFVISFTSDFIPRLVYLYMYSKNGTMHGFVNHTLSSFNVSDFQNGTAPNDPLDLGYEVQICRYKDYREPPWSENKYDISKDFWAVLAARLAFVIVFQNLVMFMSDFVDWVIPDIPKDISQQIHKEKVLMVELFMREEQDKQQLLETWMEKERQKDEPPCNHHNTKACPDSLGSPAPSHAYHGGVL
The data set can be described thus: Short-circuit current (ISC), FRT-TMEM16Aabc monolayers in Ussing chambers. In kind it is cell-based. To be noted: for UTP-stimulated integrated ISC response (AUC) / UTP-stimulated peak increase in ISC: 5 min pre-treatment, apical, UTP 10 µM, concentration-dependent. The procedure: FRT-hTMEM16Aabc cells were mounted in Ussing chambers in asymmetrical Ringers solutions. The basolateral Ringers contained (in mM): 120 NaCl, 25 NaHCO3, 3.3 KH2PO4, 0.8 K2HPO4, 1.2 CaCl2, 1.2 MgCl2, and 10 glucose. In the apical Ringers solution, NaCl was reduced to 80 mM and 40 mM sodium gluconate was included to establish a Cl^− gradient. The solution osmolarity was between 280 and 300 mosmol kg H2O^−1 and was continuously gassed (5% CO2 in O2; pH 7.4) and maintained at 37°C. Cells were voltage clamped to 0 mV (model EVC4000; WPI) and the short-circuit current (ISC) was measured. Data were recorded using a PowerLab workstation and LabChart software (ADInstruments, Abingdon, Oxon, United Kingdom). TMEM16A blockers were added to the apical side of the epithelium for 5 min before the addition of UTP, that was used to stimulate a TMEM16A-mediated chloride secretory responses.

Setting [6] is: after amiloride, 5 min pre-treatment.

Turning to `O=C(Nc1ccc([N+](=O)[O-])cc1Cl)c1cc(Cl)ccc1O` [niclosamide], in data set [1], the “direct effect on baseline [Ca2+]i” value is “immediate and transient increase”; the “UTP-stimulated elevation of [Ca2+]i” value is reported as “attenuated”. Further, in data set [2], the “acetylated α-tubulin (ciliated) stained area” value is recorded as “significantly attenuated” and the “MUC5AC+ stained area (goblet cells)” value is “significantly attenuated”. The air-liquid interface integrity result in data set [2] (by 48 h after initiating treatment, media on mucosal surface) is reported as “compromised”. For the same compound, the “immediate, transient increase in ISC” value in data set [3] (10 µM, vehicle 0.5 ± 0.2) is 6.8 ± 1.0 µAcm^-2. The “change to lower baseline ISC than before compound addition” value in data set [3] (10 µM, vehicle −0.3 ± 0.1) is recorded as −0.9 ± 0.2 µAcm^-2. In addition, the “UTP-stimulated peak increase in ISC” value in data set [3] (setting [6]) is listed as “attenuated”. The “reduction in the baseline ISC” value in data set [4] (10 µM, within 30 min of addition) is listed as about 90%. In addition, in data set [4], the “Inh172-sensitive ISC” value is “attenuated”, the “amiloride-sensitive current / magnitude of response to amiloride” value is “attenuated”, the forskolin-stimulated current entry is “attenuated” and the “change in transepithelial resistance” value is on record as −174 ± 19 Ω cm^2. Moreover, the “transient increase in ISC on addition” value in data set [5] (10 µM, vehicle 0.0 ± 0.1) came to 4.4 ± 0.3 µAcm^-2. Also, the “subsequent attenuation of the baseline current” value in data set [5] (10 µM, vehicle −0.3 ± 0.1) is −6.7 ± 0.7 µAcm^-2. In data set [5], the “UTP-stimulated integrated ISC response (AUC)” value was “attenuated” and the “UTP-stimulated peak increase in ISC” value was “attenuated”.
For `CCc1oc2ccccc2c1C(=O)c1cc(Br)c(O)c(Br)c1` [benzbromarone], in data set [1], the “direct effect on baseline [Ca2+]i” value was “immediate and transient increase”; the “UTP-stimulated elevation of [Ca2+]i” value is on record as “attenuated”. For the same compound, in data set [2], the “acetylated α-tubulin (ciliated) stained area” value is recorded as “significantly attenuated” and the “MUC5AC+ stained area (goblet cells)” value is given as “significantly attenuated”. Also, in data set [3], the “direct effect on amiloride-insensitive baseline ISC” value is on record as “Neither Ani9 nor benzbromarone had any direct effect”. In addition, in data set [3] (setting [6]), the “UTP-stimulated ISC AUC” value is listed as “attenuated” and the “UTP-stimulated peak increase in ISC” value is reported as “attenuated”. In data set [4], the “Inh172-sensitive ISC” value was “attenuated”, the “amiloride-sensitive current / magnitude of response to amiloride” value was “attenuated”, the forskolin-stimulated current entry was “attenuated” and the “change in transepithelial resistance” value is “+170 ± 25 Ω cm^2”. Further, in data set [4] (apical), the “decline in the baseline ISC” value was found to be 50%. For the same compound, in data set [5], the “effect on baseline ISC prior to UTP” value was “without effect”, the “UTP-stimulated integrated ISC response (AUC)” value is “attenuated” and the “UTP-stimulated peak increase in ISC” value is reported as “attenuated”.
